Measured values reported in ChEMBL document CHEMBL3286197, “Synthesis and structure-activity relationship of cyclopentenone oximes as novel inhibitors of the production of tumor necrosis factor-α” (Bioorg Med Chem Lett, 2014).

Experiments:
PBMC [1] = assay: Inhibition of LPS-induced TNF-alpha production in rat PBMC
PBMC [2] = assay: Inhibition of LPS-induced TNF-alpha production in human PBMC; format: functional, cell-based

SMILES | IC50 (PBMC [1]) [µM] | IC50 (PBMC [2]) [µM]
O/N=C1\CCC(C2CCCCC2)=C1c1ccc(F)c(F)c1 | 0.34 | 
O/N=C1\CCC(C2CCCC2)=C1c1ccc(F)cc1 | 0.46 | 
O/N=C1\CCC(C2CCCC2)=C1c1ccc(F)c(F)c1 | 0.13 | 0.26
O/N=C1\CCC(C2CCCC2)=C1c1ccc2c(c1)OCO2 | 0.35 | 
O/N=C1\CCC(C2CCCC2)=C1c1cccc(O)c1 | 6.22 | 
O/N=C1\CCC(C2CCCC2)=C1c1cccc(C(F)(F)F)c1 | 3.07 | 
O/N=C1\CCC(C2CCCCC2)=C1c1ccc(F)cc1 | 1.24 | 
O/N=C1\CCC(C2CCCCC2)=C1c1ccc(F)c(Cl)c1 | 0.42 | 
CCCCCC1=C(c2ccc(F)cc2)/C(=N/O)CC1 | 3.83 | 4.59
CCCCCC1=C(c2ccc(F)c(F)c2)/C(=N/O)CC1 | 3.65 | 
CCCCCC1=C(c2cccnc2)/C(=N/O)CC1 | 14.1 | 
CCCCC1=C(c2ccc(F)cc2)/C(=N/O)CC1 | 7.88 | 
CCCCC1=C(c2ccc3c(c2)OCO3)/C(=N/O)CC1 | 2.52 | 2.92
CCCC1=C(c2ccc(F)cc2)/C(=N/O)CC1 | 2.66 | 
CCCC1=C(c2ccc(F)c(F)c2)/C(=N/O)CC1 | 0.72 | 
CCC1=C(c2ccc(F)c(F)c2)/C(=N/O)CC1 | 4.56 | 
CC1=C(c2ccc(F)c(F)c2)/C(=N/O)CC1 | 48.7 | 
COc1ccc(C2CNC(=O)C2)cc1OC1CCCC1 (configuration not stated) [ROLIPRAM] | 0.27 | 0.27
